# Laboratory results as given in PMC4492822 (EMBO Molecular Medicine, 2015).
# Legend:
# [1] = tested on: H23; test: Annexin V / PI flow cytometry, 72 h; type: cell-based
# Protocol: Histograms depicting early apoptosis (Annexin V positive) and late apoptosis (PI positive) in cells treated with the indicated amounts of RK-33. Cells were either treated with DMSO (controls) or IC50 and IC75 amounts of RK-33. After 72 hours incubation, cells were harvested and stained for Annexin V and PI and analyzed by flow cytometry.
# [2] = tested on: Twist1/Kras^G12D lung tumors; test: Twist1/KrasG12D autochthonous lung tumor model, hypofractionated radiation (SABR); type: in vivo, mouse
# Protocol: Inducible Twist1/Kras^G12D transgenic mice in the FVB/N inbred background were of the genotype: CCSP-rtTA/tetO-KrasG12D/Twist1-tetO-luc (Tran et al, [2012]). All the mice were weaned 3–4 weeks of age and then placed on dox at 4–6 weeks of age. Mice were treated with similar levels of tumor burden per micro-CT and were typically 20–30 weeks old. Mice were treated as in Fig6C and H. Each group consisted of mice, of which multiple index tumors were followed in time by micro-CT and quantified by a board-certified radiation oncologist (JZ) in a blinded fashion. Bi-dimensional measurements were made on tumors using serial examinations and tumor volumes calculated using the equation Volume = π/6 × 1.65 (length × width) × 3/2. Volumes were normalized to the starting volume, t = 0 before treatment. For 15-Gy SABR experiments, the breakdown of animal usage is (1) RT = 3 female mice, (2) RK-33 = 3 females and 1 male mice, (3) carboplatin = 3 male mice, (4) RT + carboplatin = 3 female mice, and (5) RT + RK-33 = 5 female mice. For the 3-Gy XRT experiments, animals used were (1) RT = 3 female and three male mice and (2) RT + RK-33 = four female and three male mice.
# Cells were irradiated at room temperature with 0.5 Gy/min to the desired dose using a Gammacell 40 ^137Cs irradiator. For in vivo experiments, mice were treated using the Small Animal Radiation Research Platform (Wong et al, [2008]). The tumors were irradiated with a circular beam of 1 cm diameter.
# The mice underwent micro-CT imaging by use of the Small Animal Radiation Research Platform (SARRP) irradiator described earlier (Wong et al, [2008]). The uncollimated primary beam was used for imaging. A total of 1,800 projections were acquired at approximately 0.2 angular increments. The Feldkamp CBCT algorithm was used for reconstruction. Tumor volumes were quantified from the CT dataset with Pinnacle3 software v.8.1y (Philips Inc, Madison, WI) as described previously (Tran et al, [2011]; Zeng et al, [2013]). Briefly, we viewed 2D images in sagittal, coronal, and transverse views to detect tumors and track them over time. […]
# [3] = tested on: H3255; test: MTS viability assay, 72 h, line with low DDX3 expression; type: cell-based
# Protocol: Proliferation was determined by counting cancer cells over time. Cells were seeded at 7.5 × 10^4 cells/well and counted daily with a TC10 automated cell counter (Bio-Rad, Hercules, CA, USA) at least three times. Viability of cancer cells was determined by MTS assay (CellTiter 96® AQueous One Solution, Promega, Madison, WI, USA) as described by the manufacturer. Briefly, 800–2,000 cells were allowed to attach overnight in a 96-well plate, treated with different concentrations of RK-33 and kept for 72 h. MTS reagent was kept for 2 h. Each experiment was repeated a minimum of three independent times.
# [4] = tested on: preclinical breast and sarcoma models; test: Single agent activity in preclinical breast and sarcoma models; type: in vivo; details: authors' response to reviewers
# Description: EMBO Molecular Medicine Peer Review Process File - EMM-2014-04368 levels vary based on the datasets analyzed. In addition, as far as DDX3 protein levels are concerned, […]
# making it difficult to interpret the gene expression datasets as an absolute unit to that of the protein […]
# 3) A more detailed description of expression in other normal tissues would help anticipate toxicities.
# Response: It is difficult to ascertain if the levels of DDX3 in the normal cells will directly correlate to toxicities levels following RK-33 treatment. It is possible that normal cells are not dependent on DDX3 for its cellular biogenesis as compared to the cancer cells. This could be one of the reasons why there is no observable toxicity within our experimental setting. Also, as a first step to determine toxicity for a novel drug, it is essential to test the effect in small animals like mouse or rat. Based on these criteria, we observed no toxicity in mouse at higher levels than the therapeutic dose to kill […]
# impart any visible side effects.
# 4) Legends for Figure 2 are mislabeled.
# Response: We thank the reviewer for pointing this out. We have rectified this in the revised […]
# 5) What is the subsrate in the helicase assay. Have the authors explored RNA secondary (e.g. G-quadruplex or hairpin structures)? […]
# 10) Figure 7. Please add a quantification of cell death. […]
substance,measurement,setting,value
"diimidazo[4,5-d:4′,5′-f]-[1,3]diazepine [RK-33]",cells in gate of Annexin V/PI plot,"[1]; 5 uM, lower line, first value",30.3
same,cells in gate of Annexin V/PI plot,"[1]; 5 uM, lower line, second value",28.2
same,cells in gate of Annexin V/PI plot,"[1]; 5 uM, upper value of panel",39
same,cells in gate of Annexin V/PI plot,"[1]; 7.5 uM, lower line, first value",17.1
same,cells in gate of Annexin V/PI plot,"[1]; 7.5 uM, lower line, second value",18.8
same,cells in gate of Annexin V/PI plot,"[1]; 7.5 uM, upper value of panel",60.4
same,Ki67 positive cells in lung tumors,[2]; RK-33 and radiation treatment,decrease in Ki67 positive cells
same,enhancement of the radiation effect (tumor volume by micro-CT),"[2]; i.p. RK-33 with 15-Gy SABR, 1 week after treatment",3.7 fold
same,radiation sensitization relative to that caused by carboplatin,[2]; with SABR,1.5 fold
same,IC50,[3],> 25 µM
same,single agent activity,[4],delayed tumor growth
